One assay concerns RAW 264.7 cells. In words: Suppressive activities of NO production (LPS-induced, NO2- by Griess reagent). The assay is classed as cell-based. Particulars: for inhibition at 10 µM / inhibition at 20 µM / inhibition at 5 µM: Mus musculus, LPS, 16 hours, read-out: Suppressive Ability for Induction of NO Production by LPS (%); for inhibition at 10 µM: RAW264.7, 10 μM; for inhibition at 20 µM: RAW264.7, 20 μM; for suppression of the induction of NO production by LPS (in words): concentrations as in Table 2; for inhibition at 5 µM: RAW264.7, 5 μM. As to the method:
Suppressive activities of NO production of the compounds prepared in Examples 1 to 9 (TB3, TB4, TB5, TB6, TB7, TB8, TB9, compound (C081) and compound (C042)) were measured by the following method. RAW 264.7 cells (ATCC TIB 71) were suspended in Dulbecco's modified Eagle's medium (manufactured by Sigma, D5796) containing 10% fetal bovine serum (manufactured by Bio Whittaker, 14-506F), so as to have a concentration of 4×10^5 cells/mL, and the suspension was put to each well of a 48-well microtiter plate in an amount of 500 μL per well. The cells were cultured at 37° C. in the presence of 5% carbon dioxide gas. After 24 hours, the medium was exchanged with Dulbecco's modified Eagle's medium (manufactured by Bio Whittaker, 12-917F) containing 10% fetal bovine serum (manufactured by Bio Whittaker), 2 mM L-glutamine (manufactured by Life Tech Oriental Co., Ltd., 25030-149) without containing phenol red. A 10 mM, 5 mM, or 2.5 mM TB3, TB4, TB5, TB6, TB7, TB8, TB9, compound (C081) or compound (C042) (all are dimethyl sulfoxide solution) was added to each well in an amount of 1 μL per well. After additional 1 hour of culture, a 100 μg/mL aqueous lipopolysaccharide (LPS, manufactured by Sigma, L-2010) solution was added to each well in an amount of 5 μL per well, and the cells were cultured for 16 hours. Thereafter, the concentration of NO2^− which was produced by oxidation of NO in the medium was determined. In addition, there was set a group with addition of dimethyl sulfoxide in place of the each compound as a control. After the above-mentioned culture, 100 μL of a 4% grease reagent (manufactured by Sigma, G4410) was added to 100 μL of the supernatant of the culture medium, and the mixture was allowed to stand at room temperature for 15 minutes. Thereafter, absorbance at 540 nm was determined. The concentration of NO2^− in the medium was calculated from a calibration curve prepared from known concentrations of NaNO2 (manufactured by Sigma, S2252). All of the determinations were carried out twice. The suppressive ability of NO production of the each compound was calculated in accordance with the following formula.
A general note: Nitrite, measured by Griess reagent, commonly stands in for NO production.

In assay [1] the target is T1, aldose reductase derived from human muscle cells (Homo sapiens, UniProt P15121).
T1 construct: purchased Wako Pure Chemical Industries
In words: Inhibitory activities of aldose reductase. It is filed as biochemical. The settings on record: for inhibitory activities of aldose reductase (in words): concentrations as in Table 1; for inhibition at 10 µM: final concentration 10 μM; for inhibition at 10 µM / inhibition at 20 µM / inhibition at 40 µM: average of two values, read-out: Inhibitory Ratio (%) of Aldose Reductase; for inhibition at 20 µM: final concentration 20 μM; for inhibition at 40 µM: final concentration 40 μM. As to the method: Inhibitory activities of aldose reductase of the compounds prepared in Examples 1 to 9 (TB3, TB4, TB5, TB6, TB7, TB8, TB9, compound (C081) or compound (C042)) were measured by the following method. Twenty microliters of 100 mM methylglyoxal was added to 10 μL of a sample (dissolved each compound in a 50% aqueous dimethyl sulfoxide solution), 100 μL of 0.2 M phosphate buffer (pH 6.2), 20 μL of 1 mM NADPH (phosphate buffer), and 10 μL of a solution of aldose reductase derived from human muscle cells (0.1 U/mL, manufactured by Wako Pure Chemical Industries, phosphate buffer). After 30 seconds passed, change in absorbance of NADPH at 340 nm was determined for 180 seconds. A 50% aqueous dimethyl sulfoxide solution was used as a negative control in place of the sample. In addition, the absorbance was determined using distilled water as a blank of each sample in place of the methylglyoxal solution. The found values are expressed as an average of the values in two experimental values. The inhibitory ratio (%) of aldose reductase was calculated in accordance with the following formula. Inhibitory Ratio (%)=[1−[(ΔAs−ΔAsb)/(ΔAc−ΔAcb)]]×100
Here, ΔAs and ΔAc are changes in absorbance per 1 minute of a sample solution, and a negative control solution, respectively, and ΔAsb and ΔAcb are changes in absorbance per 1 minute of blank of a sample solution, and a negative control solution, respectively.

For the compound `CC(C)CCc1c(O)ccc(C(=O)/C=C/c2ccc(O)cc2)c1O` [Compound (C042), 1-[2,4-dihydroxy-3-(3-methylbutyl)phenyl]-3-(4-hydroxyphenyl)-2-propen-1-one], in the assay on RAW 264.7 cells, the inhibition at 10 µM was determined as 19.3%, the inhibition at 20 µM is 50.2% and the “suppression of the induction of NO production by LPS (in words)” value was “suppressed the induction of NO production by LPS in a concentration-dependent manner”. In assay [1], the “inhibitory activities of aldose reductase (in words)” value is given as “inhibitory activities of aldose reductase in a concentration-dependent manner”, the inhibition at 10 µM was 47.8% and the inhibition at 20 µM came out at 68.7%.

In the case of `COc1ccc(C(=O)/C=C/c2ccc(O)cc2)c(O)c1C/C=C(\C)C/C=C/C(C)(C)O` [Compound (C081), 1-[2-hydroxy-3-(7-hydroxy-3,7-dimethyl-2,5-octadienyl)-4-methoxyphenyl]-3-(4-hydroxyphenyl)-2-propen-1-one], in the assay with RAW 264.7 cells, the inhibition at 10 µM amounted to 31.6%, the inhibition at 20 µM turned out to be 53.7% and the “suppression of the induction of NO production by LPS (in words)” value is on record as “suppressed the induction of NO production by LPS in a concentration-dependent manner”. Moreover, in assay [1], the “inhibitory activities of aldose reductase (in words)” value is “inhibitory activities of aldose reductase in a concentration-dependent manner”, the inhibition at 10 µM amounted to 11.9%, the inhibition at 20 µM is 16.2% and the inhibition at 40 µM was 26.7%.

As for `CC(C)=CCCC(C)(O)C1Cc2c(ccc(C(=O)/C=C/c3ccc(O)cc3)c2O)O1` (centres unmarked) [TB3, 1-[2,3-dihydro-4-hydroxy-2-(1-hydroxy-1,5-dimethyl-4-hexenyl)-benzofuran-5-yl]-3-(4-hydroxyphenyl)-2-propen-1-one], in the assay on RAW 264.7 cells, the inhibition at 5 µM came out at 8.9%, the inhibition at 10 µM amounted to 9.5%, the inhibition at 20 µM came to 43.8% and the “suppression of the induction of NO production by LPS (in words)” value is reported as “suppressed the induction of NO production by LPS in a concentration-dependent manner”. Also, in assay [1], the “inhibitory activities of aldose reductase (in words)” value is on record as “inhibitory activities of aldose reductase in a concentration-dependent manner”, the inhibition at 10 µM was found to be 14.2%, the inhibition at 20 µM came to 30.1% and the inhibition at 40 µM was found to be 53.8%.

For `COc1ccc(C(=O)/C=C/c2ccc(O)cc2)c2c1CC(C(C)(C)O)O2` (centres unmarked) [TB4, 1-[2,3-dihydro-2-(1-hydroxy-1-methylethyl)-4-methoxybenzofuran-7-yl]-3-(4-hydroxyphenyl)-2-propen-1-one], in the assay with RAW 264.7 cells, the inhibition at 5 µM was 32.6%, the inhibition at 10 µM turned out to be 56.4%, the inhibition at 20 µM is 63.7% and the “suppression of the induction of NO production by LPS (in words)” value is “suppressed the induction of NO production by LPS in a concentration-dependent manner”. Further, in assay [1], the “inhibitory activities of aldose reductase (in words)” value was “inhibitory activities of aldose reductase in a concentration-dependent manner”, the inhibition at 10 µM came to 57.4% and the inhibition at 20 µM stood at 57.9%.

For the compound `C/C(=C\Cc1c(O)ccc(C(=O)/C=C/c2ccc(O)cc2)c1O)CCC(O)C(C)(C)O` (centres unmarked) [TB5, 1-[2,4-dihydroxy-3-(6,7-dihydroxy-3,7-dimethyl-2-octenyl)phenyl]-3-(4-hydroxyphenyl)-2-propen-1-one], in the assay on RAW 264.7 cells, the inhibition at 5 µM was found to be 17.9%, the inhibition at 10 µM was 35.2%, the inhibition at 20 µM was 76% and the “suppression of the induction of NO production by LPS (in words)” value was “suppressed the induction of NO production by LPS in a concentration-dependent manner”. In addition, in assay [1], the “inhibitory activities of aldose reductase (in words)” value is on record as “inhibitory activities of aldose reductase in a concentration-dependent manner”, the inhibition at 10 µM is 35.1%, the inhibition at 20 µM was 49.7% and the inhibition at 40 µM worked out at 66.7%.

As for `CCOC(C)(C)C(O)CC/C(C)=C/Cc1c(O)ccc(C(=O)/C=C/c2ccc(O)cc2)c1O` (centres unmarked) [TB6, 1-[3-(7-ethoxy-6-hydroxy-3,7-dimethyl-2-octenyl)-2,4-dihydroxyphenyl]-3-(4-hydroxyphenyl)-2-propen-1-one], in the assay on RAW 264.7 cells, the inhibition at 5 µM was 17.3%, the inhibition at 10 µM worked out at 29.4%, the inhibition at 20 µM was 62.2% and the “suppression of the induction of NO production by LPS (in words)” value is “suppressed the induction of NO production by LPS in a concentration-dependent manner”. Besides, in assay [1], the “inhibitory activities of aldose reductase (in words)” value was “inhibitory activities of aldose reductase in a concentration-dependent manner”, the inhibition at 10 µM amounted to 41.9%, the inhibition at 20 µM turned out to be 56.5% and the inhibition at 40 µM was found to be 66.8%.

For `COc1ccc(C(=O)/C=C/c2ccc(O)cc2)c(O)c1CC1C2(C)CCC(O2)C1(C)C` (centres unmarked) [TB7, 1-[3-(2,5-epoxy-2,6,6-trimethyl-cyclohexylmethyl)-2-hydroxy-4-methoxyphenyl]-3-(4-hydroxyphenyl)-2-propen-1-one], in the assay with RAW 264.7 cells, the inhibition at 5 µM came out at 12.2%, the inhibition at 10 µM was determined as 23.9%, the inhibition at 20 µM is 42.9% and the “suppression of the induction of NO production by LPS (in words)” value is given as “suppressed the induction of NO production by LPS in a concentration-dependent manner”. In addition, in assay [1], the “inhibitory activities of aldose reductase (in words)” value is listed as “inhibitory activities of aldose reductase in a concentration-dependent manner”, the inhibition at 10 µM came out at 20.1%, the inhibition at 20 µM was 33.8% and the inhibition at 40 µM came out at 54.3%.

Take `COc1ccc(C(=O)/C=C/c2ccc(O)cc2)c(O)c1C/C=C(\C)C/C=C/C(C)(C)OO` [TB8, 1-[2-hydroxy-3-(7-hydroperoxy-3,7-dimethyl-2,5-octadienyl)-4-methoxyphenyl]-3-(4-hydroxyphenyl)-2-propen-1-one]: in the assay on RAW 264.7 cells, the inhibition at 5 µM was 12.2%, the inhibition at 10 µM amounted to 18.7%, the inhibition at 20 µM came to 36.9% and the “suppression of the induction of NO production by LPS (in words)” value was “suppressed the induction of NO production by LPS in a concentration-dependent manner”. Further, in assay [1], the “inhibitory activities of aldose reductase (in words)” value is “inhibitory activities of aldose reductase in a concentration-dependent manner”, the inhibition at 10 µM is 17.9%, the inhibition at 20 µM was found to be 32.7% and the inhibition at 40 µM was 44.2%.

Consider `C=C(C)C(CC/C(C)=C/Cc1c(OC)ccc(C(=O)/C=C/c2ccc(O)cc2)c1O)OO` (centres unmarked) [TB9, 1-[2-hydroxy-3-(6-hydroperoxy-3,7-dimethyl-2,7-octadienyl)-4-methoxyphenyl]-3-(4-hydroxyphenyl)-2-propen-1-one], for which, in the assay with RAW 264.7 cells, the inhibition at 5 µM was determined as 11.2%, the inhibition at 10 µM turned out to be 29.2%, the inhibition at 20 µM was 49.6% and the “suppression of the induction of NO production by LPS (in words)” value was “suppressed the induction of NO production by LPS in a concentration-dependent manner”. In addition, in assay [1], the “inhibitory activities of aldose reductase (in words)” value is recorded as “inhibitory activities of aldose reductase in a concentration-dependent manner”, the inhibition at 10 µM is 31.6%, the inhibition at 20 µM was 44.7% and the inhibition at 40 µM worked out at 57.3%.

Source of the values: patent publication US7498357B2, “Chalcone compounds” (Takara Bio Inc., priority 2003, dated 2009).
